The results in this text go back to ChEMBL document CHEMBL1142047, “Identification of a 5-HT4 receptor antagonist clinical candidate through side-chain modification” (Bioorg Med Chem Lett, 2005).

A short description of series [1]: Volume of distribution in dog (n=7; dose 0.25 mg/kg iv or 0.5 mg/kg po). The settings on record: in vivo.
Series [2] is described as follows: in vivo. The settings on record: dog, plasma, iv, 0.25 mg/kg.
A short description of series [3]: Time taken for half of the concentration to degrade upon intravenous administration (n=7; dose 0.25 mg/kg iv). The settings on record: dog, in vivo.
The target of series [4] is 5-hydroxytryptamine receptor 4 (Homo sapiens, UniProt Q13639). Description: Inhibitory constant for human cloned 5-HT4 receptor.
A short description of series [5]: (§1) Bioavailability in dog (dose 0.25 mg/kg i.v. and 0.5 mg/kg p.o.). The settings on record: in vivo, po.
The nature of series [6]: Time taken for half of the concentration to degrade upon oral administration. It counts as ADME, organism-based, Canis lupus familiaris. The settings on record: dog, in vivo.
Series [7] in a line: Time taken for half of the concentration to degrade upon oral administration (n=7; 0.5 mg/kg po). It is filed as ADME, organism-based, Canis lupus familiaris. Details: dose 0.5 mg/kg, route oral. The conditions noted are these: dog, in vivo.
The target in another series is Histamine H1 receptor (Rattus norvegicus, UniProt P31390).
A short description of series [8]: Volume of distribution in dog (n=8; dose 0.25 mg/kg iv or 0.5 mg/kg po). It is filed as ADME, organism-based, Canis lupus familiaris. The settings on record: in vivo, read-out: Vz.
Series [9] can be described thus: as §1. It counts as ADME, organism-based, Canis lupus familiaris. The conditions noted are these: in vivo, po.
Series [10] is described as follows: Time taken for half of the concentration to degrade upon intravenous administration (n=8; dose 0.25 mg/kg iv). It is filed as ADME, organism-based, Canis lupus familiaris. Set-up: dose 0.25 mg/kg, route intravenous. The settings on record: dog, in vivo.
The nature of series [11]: Plasma clearance in dog (n=8; dose 0.25 mg/kg iv or 0.5 mg/kg po). It is filed as ADME, organism-based, Canis lupus familiaris.
Series [12] in a line: Bioavailability in rat. The conditions noted are these: in vivo. It counts as ADME, organism-based.
Series [13] is described as follows: Half-life in human. It is filed as ADME.
The nature of series [14]: in vivo. The settings on record: rat.
Series [15] is described as follows: in vivo. The conditions noted are these: dog, plasma, iv, 0.25 mg/kg. This is another data set of the same source.
Series [16] can be described thus: Volume of distribution in dog (n=12; dose 0.25 mg/kg iv or 0.5 mg/kg po). The conditions noted are these: in vivo.
The nature of series [17]: Time taken for half of the concentration to degrade upon intravenous administration (n=12; dose 0.25 mg/kg iv). The conditions noted are these: dog, in vivo.
Series [18] can be described thus: Intrinsic clearance of compound in dog liver microsomes.
The nature of series [19]: Percentage bioavailability (n=12; dose 0.25 mg/kg iv or 0.5 mg/kg po). It counts as ADME, organism-based, Canis lupus familiaris. The settings on record: dog, in vivo.
A short description of series [20]: Intrinsic clearance of compound in human liver microsomes.

Sequence of 5-hydroxytryptamine receptor 4 (Q13639 whole entry): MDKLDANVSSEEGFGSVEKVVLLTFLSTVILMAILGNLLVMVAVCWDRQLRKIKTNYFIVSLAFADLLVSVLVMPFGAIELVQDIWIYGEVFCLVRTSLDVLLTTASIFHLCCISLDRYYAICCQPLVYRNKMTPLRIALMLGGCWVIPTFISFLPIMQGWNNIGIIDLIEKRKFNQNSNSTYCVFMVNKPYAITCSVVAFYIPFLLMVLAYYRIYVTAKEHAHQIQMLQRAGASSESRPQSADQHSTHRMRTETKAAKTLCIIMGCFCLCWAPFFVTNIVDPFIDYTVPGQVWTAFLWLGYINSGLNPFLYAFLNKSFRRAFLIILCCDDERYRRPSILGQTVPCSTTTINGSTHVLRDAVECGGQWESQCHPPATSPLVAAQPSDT
Sequence of Histamine H1 receptor (P31390 whole entry): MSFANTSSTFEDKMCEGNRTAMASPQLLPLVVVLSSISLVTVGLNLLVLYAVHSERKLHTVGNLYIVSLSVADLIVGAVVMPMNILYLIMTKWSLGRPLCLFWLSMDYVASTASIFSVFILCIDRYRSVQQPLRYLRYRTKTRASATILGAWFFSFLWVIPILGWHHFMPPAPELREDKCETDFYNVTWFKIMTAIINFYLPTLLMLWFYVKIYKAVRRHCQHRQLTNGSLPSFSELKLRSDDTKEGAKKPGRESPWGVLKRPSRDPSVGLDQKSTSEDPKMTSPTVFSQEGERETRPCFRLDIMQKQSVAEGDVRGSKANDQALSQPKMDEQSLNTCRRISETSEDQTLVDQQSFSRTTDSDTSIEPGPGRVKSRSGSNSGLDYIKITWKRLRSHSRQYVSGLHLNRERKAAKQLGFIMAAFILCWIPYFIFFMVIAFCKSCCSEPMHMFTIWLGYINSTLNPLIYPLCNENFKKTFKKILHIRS

One may read the half-life as the time needed for the level to fall by half in the phase considered. Higher therefore signals slow decline. As usually defined, the Ki is a dissociation constant, usually derived from enzyme kinetics or from competition with a known ligand. A high value points to weaker binding. As a reminder, the bioavailability is the share of a dose that reaches the circulation, judged against a reference dose that is usually intravenous. `CC1(C)CCN(S(=O)(=O)CCCN2CCC(CNC(=O)c3cccc4c3OCCO4)CC2)CC1` displayed a Vd in series [1] of 1.5 L/kg. In the series “in vivo [2]”, this compound yielded a clearance of 27 mL/min/kg. Besides, the half-life in series [3] is 42 min. The same compound gave a Ki in series [4] of 0.126 nM. In addition, the bioavailability in series [5] is 100%.
Regarding `CC(=O)N1CCN(S(=O)(=O)CCCN2CCC(CNC(=O)c3cccc4c3OCCO4)CC2)CC1`, the half-life is 276 min in series [6] and 78 min in series [3]. Moreover, the Vd in series [1] was 0.7 L/kg. This compound also had a clearance in the series “in vivo [2]” of 6 mL/min/kg. The inhibitory constant (Ki) in series [4] was 0.126 nM. Moreover, the bioavailability in [5] was 51%.
The compound `CS(=O)(=O)N1CCN(S(=O)(=O)CCCN2CCC(CNC(=O)c3cccc4c3OCCO4)CC2)CC1` displayed a Vd in series [1] of 0.3 L/kg. Moreover, the half-life in [7] is 216 min; in [3], 72 min. Moreover, the affinity in series [4], expressed as Ki, was 0.316 nM. The compound also displayed a bioavailability in series [5] of 90%.
`CC(C)S(=O)(=O)N1CCN(S(=O)(=O)CCCN2CCC(CNC(=O)c3cccc4c3OCCO4)CC2)CC1` had a Ki in [4] of 0.126 nM.
`CCCC1CCN(S(=O)(=O)CCCN2CCC(CNC(=O)c3cccc4c3OCCO4)CC2)CC1` returned a Vd in [1] of 1.4 L/kg. Also, in the series “in vivo [2]”, the clearance is 33 mL/min/kg. The compound further gave a half-life in series [3] of 30 min. The compound further gave a Ki in series [4] of 0.0631 nM. Also, the bioavailability in series [5] was 15%.
For orientation: IC50 means the concentration needed to halve the response being measured. For `CN1CCN(S(=O)(=O)CCCN2CCC(CNC(=O)c3cccc4c3OCCO4)CC2)CC1`, the Ki in [4] is 0.251 nM. The 50% inhibitory concentration (IC50) on Histamine H1 receptor came to 100 nM.
Compound `O=C(NCC1CCN(CCCS(=O)(=O)N2CCN(c3ccc(F)cc3)CC2)CC1)c1cccc2c1OCCO2` had a Ki in series [4] of 0.0501 nM.
In the case of `O=C(NCC1CCN(CCCS(=O)(=O)N2CCNCC2)CC1)c1cccc2c1OCCO2`, the Vd in [8] came out at 34 L/kg. Further, the bioavailability in series [9] amounted to 33%. The same compound showed a half-life in [10] of 2220 min. Also, in series [4], the Ki was 0.158 nM. In addition, the clearance in series [11] was determined as 11 mL/min/kg.
The like results for `O=C(NCC1CCN(CCCS(=O)(=O)N2CCN(C(=O)c3ccco3)CC2)CC1)c1cccc2c1OCCO2` were, in that order, 0.2 L/kg, 64%, 60 min, 0.1 nM and 2 mL/min/kg.
The like results for `O=C(NCC1CCN(CCCS(=O)(=O)N2CCN(C3CCCC3)CC2)CC1)c1cccc2c1OCCO2` were, in that order, 9.3 L/kg, 42%, 174 min, 0.0158 nM and 37 mL/min/kg.
For `CCCN1CCN(S(=O)(=O)CCCN2CCC(CNC(=O)c3cccc4c3OCCO4)CC2)CC1`, in series [4], the Ki is 0.0316 nM.
The same measure, in the same setting: the figure for `CCC(C)N1CCN(S(=O)(=O)CCCN2CCC(CNC(=O)c3cccc4c3OCCO4)CC2)CC1` (configuration not stated) is 0.0251 nM; for `O=C(NCC1CCN(CCCS(=O)(=O)N2CCN(Cc3cccnc3)CC2)CC1)c1cccc2c1OCCO2` it is 0.158 nM.
The same measure, in the same setting: as for `O=C(NCC1CCN(CCCS(=O)(=O)N2CCCCC2)CC1)c1cccc2c1OCCO2`, the figure is 0.2 nM.
As for `CCCCN1CCC(CNC(=O)c2cccc3c2OCCO3)CC1`, in series [12], the bioavailability stood at 18%. In [4], this compound had an inhibitory constant (Ki) of 0.794 nM. Also, the half-life in series [13] is 2.5 days; in “in vivo [14]” it was less than 60 min.
With `CC(C)N1CCN(S(=O)(=O)CCCN2CCC(CNC(=O)c3cccc4c3OCCO4)CC2)CC1`, the Vd in [1] stood at 3.6 L/kg. In the series “in vivo [2]”, the clearance was 14 mL/min/kg. This compound also had a half-life in [3] of 180 min. This compound also showed a Ki in [4] of 0.0316 nM. In series [5], this compound had a bioavailability of 72%.
The like results for `CCCS(=O)(=O)N1CCN(S(=O)(=O)CCCN2CCC(CNC(=O)c3cccc4c3OCCO4)CC2)CC1` were, in that order, 0.7 L/kg, 12 mL/min/kg, 42 min, 0.1 nM and 82%.
In turn, `O=C(NCC1CCN(CCCS(=O)(=O)N2CCN(S(=O)(=O)N3CCCC3)CC2)CC1)c1cccc2c1OCCO2` had an inhibition constant (Ki) in series [4] of 0.0794 nM.
In turn, `O=C(NCC1CCN(CCCS(=O)(=O)N2CCN(c3ncccn3)CC2)CC1)c1cccc2c1OCCO2` returned a Vd in series [1] of 0.3 L/kg. For the same compound, the clearance in “in vivo [2]” turned out to be 5 mL/min/kg. For the same compound, in series [3], the half-life was 42 min. Further, the Ki in [4] is 0.251 nM. The compound also yielded a bioavailability in [5] of 65%.
As for `O=C(NCC1CCN(CCCS(=O)(=O)N2CCC3(CCCC3)CC2)CC1)c1cccc2c1OCCO2`, the Ki in [4] was 0.0251 nM.
In “in vivo [15]”, `O=C(NCC1CCN(CCCS(=O)(=O)N2CCOCC2)CC1)c1cccc2c1OCCO2` had a clearance of 7 mL/min/kg. Further, affinity in [4] was put at a Ki of 0.398 nM. Also, the Vd in series [16] is 1.6 L/kg. The half-life in series [17] was 60 min. Moreover, in series [5], the bioavailability was 76%.
Take `O=C(NCC1CCN(CCCS(=O)(=O)N2CCN(S(=O)(=O)c3ccc(F)cc3)CC2)CC1)c1cccc2c1OCCO2`: the Ki in [4] was 0.0316 nM.
In series [1], `CCN1CCN(S(=O)(=O)CCCN2CCC(CNC(=O)c3cccc4c3OCCO4)CC2)CC1` displayed a Vd of 3.6 L/kg. Also, the half-life in series [3] is 186 min. Besides, the affinity in series [4], expressed as Ki, was 0.0501 nM. Also, in [5], the bioavailability is 94%.
Broadly, the microsomal CLint is a measure of how fast metabolising enzymes remove a compound, apart from limits set by blood flow. A high value points to faster metabolism. In the case of `CCCCN1CCC(CNC(=O)c2c3n(c4ccccc24)CCCO3)CC1` [PIBOSEROD], the figures for the microsomal CLint in series [18] and in series [20] were 4 µL/min/mg and 5 µL/min/mg, respectively. The clearance in “in vivo [15]” amounted to 8 mL/min/kg. The Ki in [4] is 0.251 nM. For the same compound, the Vd in series [16] amounted to 5 L/kg. Besides, the bioavailability in series [19] is 71%. This compound also had a half-life in series [17] of 426 min.
